Laboratory results published in article PMC5442318, “Hundreds of dual-stage antimalarial molecules discovered by a functional gametocyte screen” (Nature Communications, 2017).
Read-outs that look alike come from different tables or passages of the source.

Key:
[1] = tested on: P. falciparum stages IV–V gametocytes; assay: Gametocytocidal ATP-depletion assay (gametocyte ATP bioluminescence); assay type: cell-based, Plasmodium falciparum
In short: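 Purified stage IV–V gametocytes (12,500/well) incubated with compound for 48 h at 37 °C under 3% O2/5% CO2. ATP measured by BacTiter-Glo luminescence as a viability surrogate; hits tested at 2 μM single concentration.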

[2] = tested on: P. falciparum asexual blood stages; conditions: read-out: Pf Asexual blood stages XC50, cited from earlier work
HepG2 cells = assay: HepG2 cytotoxicity assay; assay type: cell-based
In short: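 Post-incubation CellTiter-Glo luminescence; 30 min RT equilibration, 10 min RT stabilization before reading.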

[3] = tested on: P. falciparum stage V female gametocytes; assay: P. falciparum female gametocyte activation assay (Pf FGAA), 24 h or 48 h preincubation, Pfs25 expression readout; assay type: cell-based, Plasmodium falciparum NF54; conditions: mean, read-out: Gametocytes mean Pf FGAA IC50
In short: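 Purified stage V gametocytes from P. falciparum NF54 gametocyte cultures were exposed to compounds for 24 h or 48 h at 37 °C under 3% O2/5% CO2, then activated by temperature drop plus xanthurenic acid. Activated females were stained with Cy3-anti-Pfs25 (0.5 μg ml^−1) for 24 h at 26 °C and counted by high-content imaging; pIC50 by nonlinear regression.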

[4] = TCAMS asexual blood stage data, ref 1 (Gamo, F. J. et al., Nature 465, 305-310, 2010)
[5] = P. falciparum female gametocytes
[6] = TCAMS data, ref 1 (Gamo et al., 2010)
[7] = P. falciparum female gametocyte activation assay

IC50 [3, 5] [nM]	Compound	Gametocytes mean ATP inhibition at 2µM [1] [%]	IC50 [2, 4] [nM]	HepG2 cells mean TOX50 (HepG2 cells; HepG2 cells; mean) [µM]	Gametocytes mean ATP inhibition at 2µM (%) [1] [%]	IC50 [2, 6] [nM]	HepG2 cells mean TOX50 (HepG2 cells; mean) [µM]	IC50 [3] [nM]	also measured
2610	N=C(/N=C(/NCCCCCCN/C(=N/C(=N)NCc1ccc(Cl)c(Cl)c1)N1CCCCC1)N1CCCCC1)NCc1ccc(Cl)c(Cl)c1 [TCMDC-131816]	67.07	570	43.18	–	–	–	–	–
–	COc1c(OC)c(OC)c2ccccc2c1CNCCCCCCNCc1c(OC)c(OC)c(OC)c2ccccc12.Cl [TCMDC-137827]	–	–	–	-6.56	760	2.95	1670	–
–	CC(C)(CN)c1nc(-c2ccc(Cl)c(O)c2)c(-c2ccncc2)[nH]1.Cl [TCMDC-140369]	–	–	–	-0.49	760	2.16	940	–
–	CN(C)CCNCc1ccc(-c2ccc3c(Nc4ccc(Cl)cc4F)ccnc3c2)o1 [TCMDC-138391]	–	–	–	2.24	210	0.89	1710	–
100	CC(C)(C)Nc1cc(C2CC2)nc(-c2ccccn2)n1 [TCMDC-124453]	81.87	680	>100	–	–	–	–	–
–	CC[C@H]1CN2CCc3cc(OC)c(OC)cc3[C@@H]2C[C@@H]1C[C@H]1NCCc2cc(OC)c(OC)cc21 [TCMDC-125531]	–	210	9.77	–	–	–	–	inhibition at 2 µM ([1]; Plasmodium falciparum, mean): 56%; IC50 ([3]; Plasmodium falciparum, P. falciparum female gametocytes): 2730 nM
–	COc1cc2ccccc2c(CNCCCCCCNCc2c(OC)c(OC)cc3ccccc23)c1OC.CS(=O)(=O)O [TCMDC-137795]	–	–	–	13.93	1110	4.62	670	–
1460	CCc1c(CCNCCCCCCNCCc2ccc([N+](=O)[O-])cc2)ccc(OC)c1OC.Cl [TCMDC-132066]	24.70	730	4.57	–	–	–	–	–
–	CC(C)COc1ccc2ccccc2c1CNCCCCCCNCc1c(OCC(C)C)ccc2ccccc12.CS(=O)(=O)O [TCMDC-137972]	–	–	–	92.13	690	2.19	810	–
–	Cc1c(Cn2ncc(N3CCC(N)CC3)c(Cl)c2=O)cccc1NC(=O)Nc1ccc(-c2ccccc2)cc1.O=C(O)C(F)(F)F [TCMDC-141931]	22.47	700	–	–	–	–	–	HepG2 cells mean TOX50 (HepG2 cells; mean; HepG2 cells): 22.90 µM; IC50 [3, 7]: 1090 nM
–	COc1cc2nc(N3CCC(CCCC4CCNCC4)CC3)nc(NCc3ccccn3)c2cc1OC.O=C(O)C(F)(F)F [TCMDC-138494]	–	–	–	35.38	760	18.51	6860	–
–	CC(C)(C)c1ccc(-c2nc3c(ccc4nc(N)nc(N)c43)[nH]2)cc1.Cl [TCMDC-137984]	–	–	–	79.78	160	2.12	260	–
1420	CC(C)N1CCN(C(CN2CCN(CCCOc3ccc(-c4ccccc4)cc3)CC2)c2ccc(F)cc2)CC1.Cl (centres unmarked) [TCMDC-135497]	6.50	680	2.29	–	–	–	–	–
–	CCCOc1ccc(CCNCCCCNCCc2ccc(OCCC)c3ccccc23)c2ccccc12.CS(=O)(=O)O [TCMDC-137952]	–	–	–	94.33	920	2.16	610	–
27.1	Fc1ccc(NC(S)=NN=Cc2ccccn2)cc1 [TCMDC-125521]	85.73	770	>100	–	–	–	–	–
–	CN1CCN(CCCN(Cc2cccc(-c3ccc(CNCCc4ccccc4)cc3)c2)C(=O)c2cccs2)CC1.O=C(O)C(F)(F)F [TCMDC-140568]	–	–	–	-8.58	720	5.98	1710	–
1460	NCCCCNc1cc(-c2ccnc(Nc3cccc(Cl)c3)n2)ccn1 [TCMDC-134683]	-0.61	280	0.67	–	–	–	–	–
–	Cc1ccc(C(=O)Nc2ccc(Nc3ccnc4cc(-c5ccccn5)ccc34)cc2O)cc1.Cl [TCMDC-138205]	–	–	–	46.13	110	1.27	540	–
–	CS(=O)(=O)O.FC(F)(F)COc1ccc2ccccc2c1CNCCCCCCNCc1c(OCC(F)(F)F)ccc2ccccc12 [TCMDC-137816]	–	–	–	27.96	350	1.84	1090	–
–	C=CCC1OC(=O)c2cc(OC)cc(OC)c21 (centres unmarked) [TCMDC-138677]	–	–	–	95.50	340	2.29	360	–
–	Cc1cc2nc(N=C3NC4(c5ccccn5)NC(=Nc5nc6cc(C)c(C)cc6[nH]5)NC4(c4ccccn4)N3)[nH]c2cc1C.O=C(O)C(F)(F)F (centres unmarked) [TCMDC-139105]	–	–	–	33.60	680	35.91	5340	–
–	CN1CCN(c2ccc(Nc3ncc([N+](=O)[O-])c(Nc4ccccc4O)n3)cc2)CC1.O=C(O)C(F)(F)F [TCMDC-141372]	-21.03	720	–	–	–	–	–	HepG2 cells mean TOX50 (HepG2 cells; mean; HepG2 cells): 1.82 µM; IC50 [3, 7]: 2010 nM
–	COc1cc2nc(N3CCN(C(=O)c4c(Cl)nsc4-c4ccccc4Cl)CC3)nc(N)c2cc1OC.O=C(O)C(F)(F)F [TCMDC-138186]	–	–	–	69.90	530	5.89	990	–
2260	COc1cccc(OC)c1CN1CCC(N(C)CCCCCCCCN2CCC(OC(=O)Nc3ccccc3-c3ccccc3)CC2)CC1 [TCMDC-134684]	22.14	460	1.93	–	–	–	–	–
–	CC(Cc1ccc(NS(=O)(=O)c2ccc(CC(C)NCCc3cccc(Cl)c3)cc2)cc1)NCCc1cccc(Cl)c1 (centres unmarked) [TCMDC-139797]	–	–	–	-2.49	770	4.37	1840	–
–	C#CCCOc1ccc2ccccc2c1CNCCCCCCNCc1c(OCCC#C)ccc2ccccc12 [TCMDC-137832]	–	–	–	12.79	810	4.79	920	–
–	Cl.OC(CNCCCCCCNCC(O)c1ccc(Cl)c(Cl)c1)c1ccc(Cl)c(Cl)c1 (centres unmarked) [TCMDC-141987]	0.38	920	–	–	–	–	–	HepG2 cells mean TOX50 (HepG2 cells; mean; HepG2 cells): 4.27 µM; IC50 [3, 7]: 900 nM
–	CCCCCCCCN1CCN(CCCCCCNc2c3ccccc3nc3ccccc23)CC1.Cl [TCMDC-138015]	–	–	–	57.24	160	3.35	640	–
210	CC(Nc1cc(-c2ccccn2)nc(-c2ccccn2)n1)c1ccccc1 (centres unmarked) [TCMDC-125420]	86.62	450	6.18	–	–	–	–	–

Compound	IC50 [3, 5] [nM]	Gametocytes mean ATP inhibition at 2µM [1] [%]	IC50 [2, 4] [nM]	HepG2 cells mean TOX50 (HepG2 cells; HepG2 cells; mean) [µM]	Gametocytes mean ATP inhibition at 2µM (%) [1] [%]	IC50 [2, 6] [nM]	HepG2 cells mean TOX50 (HepG2 cells; mean) [µM]	IC50 [3] [nM]	also measured
Cc1cc(-c2ccc(CNC3Cc4ccccc4C3)cc2)ccc1S(=O)(=O)NCCN1CCCC1.O=C(O)C(F)(F)F [TCMDC-132243]	1830	16.13	700	5.31	–	–	–	–	–
CC(C)(C)c1ccc(CN2CCC(CNC(=O)c3cc(-c4cccc(C(F)(F)F)c4)cs3)C2)cc1.O=C(O)C(F)(F)F (centres unmarked) [TCMDC-134442]	950	-16.04	1030	6.39	–	–	–	–	–
NCc1ccc(CNCc2ccc(-c3ccc(-c4nc5cc(C(F)(F)F)ccc5[nH]4)s3)cc2)cc1.O=C(O)C(F)(F)F [TCMDC-132814]	1020	6.11	160	8.32	–	–	–	–	–
O=C(O)C(F)(F)F.O=S(=O)(NCCN1CCCC1)c1ccc(-c2cccc(CNC3Cc4ccccc4C3)c2)cc1 [TCMDC-132215]	2540	9.62	620	6.03	–	–	–	–	–
COc1ccc(CNC2CCN(C)CC2)cc1-c1ccc(S(=O)(=O)NCc2ccccc2)s1.O=C(O)C(F)(F)F [TCMDC-132253]	1750	-2.80	230	5.50	–	–	–	–	–
NCc1ccc(CNCc2cccc(-c3ccc(-c4nc5cc(C(F)(F)F)ccc5[nH]4)cc3)c2)cc1.O=C(O)C(F)(F)F [TCMDC-132811]	830	-6.09	260	14.65	–	–	–	–	–
